Patent US6159733A, “Method for photoinactivating malignant cells” (priority 1996, dated 2000)

Key:
V79 = conditions: cited from earlier work
viruses = conditions: blood products; cited from earlier work
parasites = conditions: blood products; cited from earlier work
[1] = Photosensitivity of committed BM progenitors, colony forming assay; format: cell-based, murine; conditions: mouse
Text: (§1) Animals. C57B1/6 (Ly-5.2) and B6SJ-cd45 ^b pep 3^b /BOY J (Ly-5.1), were obtained from The Jackson Laboratories (Bar Harbor, Me.) and were maintained in the animal facility of the New York Blood Center. After gamma-irradiation, the animals were housed in microisolator cages and provided with autoclaved food and autoclaved acidified water (pH=3) ad libitum. Preparation of bone marrow cell suspensions--Ly-5.1 mice were used as the source of donor BM. Mice (8-10 weeks old) were killed and the BM was harvested by flushing the femoral shafts with Hank's balanced salt solution (HBSS), pH 7.4. The cell suspensions were centrifuged, washed once and the cells were finally resuspended in HBSS--10% vol/vol fetal bovine serum (FBS, Gemini Bioproducts Inc., Calabasas, Calif.).
(§2) Photosensitization. Aliquots of a 1.87 mM Pc 4 (kindly provided by Dr. M. E. Kenney) stock solution in dimethyl sulfoxide were kept at -80° C. in autoclaved brown glass vials. Immediately prior to the photosensitization, Pc4 was thawed and diluted in dimethyl formamide to yield a 10 μM working solution. […] Pc 4 was used at 15 nM throughout the experiments.
(§3) BM and cell line samples, were incubated with 15 nM Pc 4 for two hours at 37° C. at cell concentrations of 1.5×10^7 cells/mL. Aliquots of 1.5 mL were transferred to 24-well plates; separate plates were used for each sample.
(§4) In a second set of experiments, the cells were incubated with 15 nM Pc 4 at cell concentrations of 1.5×10^6 cells/mL. Prior to photoirradiation, the samples were centrifuged and the supernatants were aspirated and set aside. The cell concentrations were adjusted to 1.5×10^7 cells/mL by adding back an appropriate volume of the Pc 4 containing aspirates.
(§5) Photoinactivation. The light source used was a filtered xenon short arc lamp (Versa-Light, Model UV-R6G, Medic Lightech, Ltd., Haifa, Israel). It was used to deliver red light (λ 600-700 nm) to the sensitized cells. After a 20 minute warm up period of the instrument, the distance from the light source to the bottom of the 24-well plate was adjusted to obtain a fluence rate of 26.6 mW/cm^2, as measured with a radiometer (Model IL 1350, International Light, Newburyport, Mass.). Samples were placed under the light source and were stirred during the irradiations. Before and after the irradiations, samples were kept in the dark.
(§6) Colony forming assays. BM samples were plated (in duplicate) in a semi-solid medium that contained IMDM (GibcoBRL), supplemented with 30% vol/vol FBS, 0.15% wt/vol deionized bovine serum albumin (Migliaccio, G., et al. Brit. J. Haematol. 67:129 (1987)) (Sigma, St. Louis, Mo.), 0.8% wt/vol methylcellulose, 75 μM β-mercaptoethanol (Sigma), antibiotics (100 U/mL penicillin, […], […] fungizone, GibcoBRL) and a cocktail of growth factors including: murine interleukin-3 (1% vol/vol COS-cell-derived supernatant, gift from Dr. K. Kaushansky), murine granulocyte-macrophage colony stimulating factor (1% vol/vol COS-cell-derived supernatant, gift from Dr. K. Kaushansky), recombinant human interleukin-11 (16 U/mL, gift from Genetics Institute, Cambridge, Mass.), recombinant rat stem cell factor (100 ng/mL), granulocyte colony stimulating factor (10 ng/mL), recombinant human erythropoietin (20 ng/mL, gifts from Amgen, Thousand Oaks, Calif.), and 800 U/mL murine thrombopoietin (800 U/mL, gift from Zymonetics, Seattle, Wash.). The samples were incubated at 37° C. in a humidified 5% CO2 -incubator and megakaryocyte colony forming units (CFU-Mk) were counted after 5 days. Blast forming units-erythroid (BFU-E), CFU-GM and mixed colonies (CFU-Mix) were counted after seven days.
(§7) Statistics. All assays were performed in triplicate unless mentioned otherwise. Data are expressed as mean values±standard error of the mean (SEM). Survival data are presented as surviving fractions relative to the surviving fractions of the untreated controls. […]

BFU-E = assay: as above; format: cell-based, murine; conditions: 15 nM, 1.5×10^6 cells/mL
Text: as §1, §2, §3, §4, §5, §6, §7

CFU-GM = assay: as above; format: cell-based, murine; conditions: 15 nM, 1.5×10^6 cells/mL
Text: as §1, §2, §3, §4, §5, §6, §7

[2] = test system: committed BM progenitor cells; assay: as above; format: cell-based, murine
Text: as §1, §2, §3, §4, §5, §6, §7

CFU-Mix = assay: as above; format: cell-based, murine; conditions: 15 nM, 1.5×10^6 cells/mL
Text: as §1, §2, §3, §4, §5, §6, §7

CFU-Mk = assay: as above; format: cell-based, murine; conditions: 15 nM, 1.5×10^6 cells/mL
Text: as §1, §2, §3, §4, §5, §6, §7

[3] = test system: multidrug resistance (mdr) pump; assay: Uptake of Pc 4 by BM in presence of verapamil
Procedure: Uptake of Pc 4. Following a two hour incubation at 37° C. with 15 nM Pc 4, cell line and BM samples were analyzed for Pc 4 uptake by flow cytometry. BM samples were first incubated with anti-c-kit^PE (Pharmingen) and anti-Sca-1^FITC (Pharmingen), to allow analysis of the Pc 4 uptake in the committed progenitor fraction (c-kit^+,Sca-1^-) and the pluripotent stem cell fraction (c-kit^+,Sca-1^+) (Li, C. L. and G. R. Johnson Blood 85:1472 (1995)). Following a 20 minute incubation on ice, and two subsequent washes, the samples were incubated with 15 nM Pc 4. The relative Pc 4 uptake was calculated by subtracting the mean fluorescence signals of the untreated control samples from the mean Pc 4 fluorescence signals.

HL-60 = conditions: 15 nM Pc 4, 5×10^6 cells/mL, 8 J/cm^2; cited from earlier work

For CN(C)CCC[Si](C)(C)O[Si]1(O)n2c3c4ccccc4c2N=C2N=C(N=c4c5ccccc5c(n41)=NC1=NC(=N3)c3ccccc31)c1ccccc12 (stereo not drawn) [Pc 4, hydroxysiloxy-dimethylpropyl-N-dimethyl silicon phthalocyanine], the “photoinactivation of V79 cells” value (V79) is given as “effectively photoinactivate”, the photoinactivation of viruses (viruses) is given as “effectively photoinactivate” and the photoinactivation of parasites (parasites) is given as “effectively photoinactivate”. For the same molecule, the cytotoxicity at 0.015 µM ([1]; bone marrow cfu-gm, 15 nM Pc 4, murine BM, read-out: losses of CFU-GM on incubation) was 0 to 15%, the viability at 0.015 µM ([1]; bone marrow progenitors, 15 nM, 1.5×10^7 cells/mL, 18 J/cm^2, read-out: surviving fraction (colony forming ability relative to untreated controls)) was under 0.3% and the “fluence for photoinactivation to below the detection levels” value (from here on “fluence for photoinactivation”) (BFU-E) was 3 J/cm^2. The “fluence for photoinactivation” value (CFU-GM) was 6 J/cm^2, the “photosensitivity of all committed progenitor subsets” value ([2]; 15 nM, 1.5×10^7 cells/mL, 3 J/cm^2) was “resistant” and the “loss of committed progenitor cells” value ([2]; Pc 4, 18 J/cm^2) was 2-3 logs. For the same molecule, the “fluence for photoinactivation” value (CFU-Mix) was 3 J/cm^2, the “fluence for photoinactivation” value (CFU-Mk) was 6 J/cm^2 and the “effect of verapamil on uptake of Pc 4” value ([3]; BM samples, verapamil during incubation) was “did not increase the uptake”. The “comparison with BPD-DA and benzochlorin” value ([3]; application with samples containing mdr^+ leukemic cells) was “compared favorable to BPD-DA”, the “substrate of the multidrug resistance pump” value ([3]; murine pluripotent stem cells) was “not a substrate” and the “surviving fraction of human cells” value (HL-60) was < 10^-5.
